Experimental data: US5008416A, “Organogermanium compound, process for the preparation of same as well as use thereof” (Sanwa Kagaku Kenkyusho Co., Ltd., priority 1989, dated 1991)
Where two headings read alike, the source gives them in different places.

Legend:
tumor bearing mice = assay: Influence on antibody production in tumor bearing mice (Pharmacological Experiment 1); format: in vivo, mouse (ICR male); conditions: for Number of PFC: 5 days, mean ± standard error, n = 7
Procedure: Influence of the organogermanium compound on antibody production ability is checked with use of tumor bearing mice, as experimental animals reduced in their immunity response.
Tumor bearing mice were prepared by implanting 2×10^6 cells of mouse tumor cell (Sarcoma 180) under a skin of each ICR male mouse (age of 6 weeks) to form a solid tumor.
The organogermanium compound (Production Example 4) dissolved in 4% bovine serum albumin solution was orally administered to the tumor bearing mice over 5 days after lapsed 9 days from the implantation of the tumor cells, by a dose of 0.1, 1.0 or 10.0 mg/kg/day.
After lapsed 14 days from the implantation, 2×10^8 cells of sheep red blood cells (SRBC) were injected in a tail vein of the mice for sensitization. After 4 days from the sensitization, spleen was removed and number of PFC in 10^6 spleen cells was measured, as an index of the antibody production in the tumor bearing mice.

[1] = test system: interferon (IFN) production; format: in vivo, mouse (BALB/c male); conditions: for INF titer: lung supernatant, three days, mean ± standard error, n = 5
Lewis lung carcinoma = assay: Anti-tumor effect, Lewis lung carcinoma (Pharmacological Experiment 6); format: in vivo, mouse (C57BL/6 male); conditions: for Inhibition (development of solid tumor) / Tumor weight: 5 days, 14th day; for Tumor weight: mean ± standard deviation, n = 10
Procedure: An anti-tumor effect of the organogermanium compound according to the invention is examined.
C57BL/6 male mice (n=10) as experimental animals were subcutaneously implanted with 1×10^5 cells of Lewis lung carcinoma to form a solid tumor. The organogermanium compound (Example 4) dissolved in 4% bovine serum albumin was orally administered at the dose of 0.1, 1.0 and 10.0 mg/kg once a day for 5 days on days 1 to 5 after the tumor implantation.
On 14th day from the implantation, formed solid tumor was removed and weighed. An antitumor effect represented the inhibitory percent of the compound on the development of solid tumor.

Sarcoma 180 tumor cells = assay: Anti-tumor effect, Sarcoma 180 (Pharmacological Experiment 7); format: in vivo, mouse (ICR male); conditions: for Inhibition (development of solid tumor) / Tumor weight: 10 days, 20th day; for Tumor weight: mean ± standard error, n = 10
Procedure: An anti-tumor effect of the organogermanium compound according to the invention is examined to Sarcoma 180 tumor cells.
Sarcoma 180 tumor cells were subcutaneously implanted with 2×10^6cells to male ICR mice (n=10) as experimental animals to form a solid tumor. The organogermanium compound (Example 4) dissolved in 4% bovine serum albumin was orally administered at the dose of 0.1, 1.0 and 10.0 mg/kg once a day for 10 days on the day after the implantation.
On the 20th day from the implantation, formed solid tumor was removed and weighed. An antitumor effect represented the inhibitory percent of the compound on the development of solid tumor.

[2] = test system: Influenza virus (A/PR/S strain); assay: Anti-virus effect, influenza virus infection model of mouse (Pharmacological Experiment 9); format: in vivo, mouse (BALB/c male); conditions: for Ratio of survival / Average life: 6 days; for Ratio of survival: 20 days from infection
Procedure: An antiviral effect of the compound according to the invention is investigated with an experimental influenza virus infection model of mouse.
Influenza virus (A/PR/S strain) was inoculated into a trachea of BALB/c male mice at 9.0 PFU/mouse. The organogermanium compound (Example 4) dissolved in 4% bovine serum albumin solution was orally administered at the dose of 0.1, 1.0 and 10.0 mg/kg once a day for 6 days from the day just after the infection to the 5th day therefrom.
A mortality of the mice was observed over 20 days from the virus infection.

[3] = test system: acute liver injury induced by galactosamine (serum transaminases); assay: Action to acute liver injury induced by galactosamine (Pharmacological Experiment 10); format: in vivo, rat (Wister male); conditions: for s-GPT / s-GOT: 5 days, 48 hours, mean ± standard error, n = 10
Procedure: An action of the organogermanium compound of the invention to an acute liver injury to be induced by galactosamine, as an experimental model for liver injury is checked, through measurement of serum transaminases, as indexes.
To Wister male rats (n=10 for each group), galactosamine was administered into abdominal canal by a dose of 400 mg/kg at 2 times with an interval of 6 hours to induce a acute liver injury.
To the […] in each Test group, the compound according to the invention (Example 4) dissolved in 4% bovine serum albumin solution was orally administered by 0.1, 1.0 or 10.0 mg/kg/day over 5 days beginning from 3 days before the administration of galactosamine.
After having lapsed 48 hours from the first administration of galactosamine, a blood letting was carried out to measure GOT and GPT values in serum.

[4] = test system: chronic liver injury induced by carbon tetrachloride (serum transaminases); assay: Action to chronic liver injury induced by carbon tetrachloride (Pharmacological Experiment 11); format: in vivo, rat (Wister male); conditions: for s-GOT / s-GPT: 10 weeks every other day, mean ± standard error, n = 10
Procedure: An action of the organogermanium compound of the invention to a chronic liver injury to be induced by carbon tetrachloride, as an experimental model for liver injury is checked, through measurement of serum transaminases, as indexes.
To Wister male rats (n=10 for each group), carbon tetrachloride was intraperitoneally administered at the dose of 480 mg/kg at 2 times by each week for 10 weeks to induce a chronic liver injury.
To the […] in each Test group, the compound according to the invention (Example 4) dissolved in 4% bovine serum albumin solution was orally administered at the dose of 0.1, 1.0 and 10.0 mg/kg/day over 10 weeks in every other day.
After having lapsed 2 days from the final administration of carbon tetrachloride, a blood letting was carried out to measure GOT and GPT values in serum.

[5] = 1.0 mg/kg orally once a day, (*) p < 0.05 vs Control
[6] = 1.0 mg/kg/day orally, (*) p < 0.05 vs Control
[7] = 10.0 mg/kg/day orally, (*) p < 0.05 vs Control

**Q.** For “Sodium 2-oxygermylethanesulfonate polymer [Example 4]”, which “Number of PFC” value (tumor bearing mice; 0.1 mg/kg/day orally, (*) p < 0.05 vs tumor bearing) is on record?
**A.** 745 ± 66 PFC in 10^6 spleen cells

**Q.** And the “Number of PFC” value (tumor bearing mice; 1.0 mg/kg/day orally)?
**A.** 948 ± 195 PFC in 10^6 spleen cells

**Q.** What about the “Number of PFC” value (tumor bearing mice; 10.0 mg/kg/day orally, (***) p < 0.001 vs tumor bearing) of the same substance?
**A.** 1071 ± 89 PFC in 10^6 spleen cells

**Q.** And the “Antibody production (result in words)” value (tumor bearing mice; 0.1-10.0 mg/kg/day orally, depending on dosing amount)?
**A.** the reduced antibody production due to generation of the tumor increased to a normal level

**Q.** And the INF titer ([1]; 0.1 mg/kg orally)?
**A.** 49.3 ± 5.3 IU/mg protein

**Q.** And the “IFN activity, times higher than the control group” value ([1]; 1.0 mg/kg orally)?
**A.** about 2.5 times

**Q.** And the INF titer ([1]; 1.0 mg/kg orally, (**) p < 0.01 vs control)?
**A.** 138.3 ± 17.1 IU/mg protein

**Q.** What about the “IFN activity, times higher than the control group” value ([1]; 10.0 mg/kg orally) of the same substance?
**A.** ~2.8 times

**Q.** What about the INF titer ([1]; 10.0 mg/kg orally, (**) p < 0.01 vs control) of the same substance?
**A.** 156.7 ± 28.3 IU/mg protein

**Q.** And the “Inhibition (development of solid tumor)” value (Lewis lung carcinoma; 0.1 mg/kg orally once a day)?
**A.** 6.8%

**Q.** And the Tumor weight (Lewis lung carcinoma; 0.1 mg/kg orally once a day)?
**A.** 1.77 ± 0.47 g

**Q.** What about the “Inhibition (development of solid tumor)” value (Lewis lung carcinoma; 1.0 mg/kg orally once a day) of the same substance?
**A.** 46.3%

**Q.** And the Tumor weight (Lewis lung carcinoma; [5])?
**A.** 1.02 ± 0.16 g

**Q.** What about the “Inhibition (development of solid tumor)” value (Lewis lung carcinoma; 10.0 mg/kg orally once a day) of the same substance?
**A.** 28.4%

**Q.** What about the Tumor weight (Lewis lung carcinoma; 10.0 mg/kg orally once a day) of the same substance?
**A.** 1.36 ± 0.31 g

**Q.** And the “Growth of Lewis lung carcinoma (result in words)” value (Lewis lung carcinoma; 0.1, 1.0 and 10.0 mg/kg orally)?
**A.** significantly inhibited the growth of Lewis lung carcinoma

**Q.** And the “Inhibition (development of solid tumor)” value (Sarcoma 180 tumor cells; 0.1 mg/kg orally once a day)?
**A.** 28%

**Q.** What about the Tumor weight (Sarcoma 180 tumor cells; 0.1 mg/kg orally once a day) of the same substance?
**A.** 1.87 ± 0.46 g

**Q.** What about the “Inhibition (development of solid tumor)” value (Sarcoma 180 tumor cells; 1.0 mg/kg orally once a day) of the same substance?
**A.** 69%

**Q.** What about the Tumor weight (Sarcoma 180 tumor cells; [5]) of the same substance?
**A.** 0.82 ± 0.22 g

**Q.** And the “Inhibition (development of solid tumor)” value (Sarcoma 180 tumor cells; 10.0 mg/kg orally once a day)?
**A.** 38%

**Q.** What about the Tumor weight (Sarcoma 180 tumor cells; 10.0 mg/kg orally once a day) of the same substance?
**A.** 1.61 ± 0.29 g

**Q.** And the “Growth of Sarcoma 180 solid tumor (result in words)” value (Sarcoma 180 tumor cells; 0.1, 1.0 and 10.0 mg/kg orally)?
**A.** reduced the growth of Sarcoma 180 solid tumor cells

**Q.** And the Ratio of survival ([2]; 0.1 mg/kg orally once a day)?
**A.** 0/10

**Q.** What about the Average life ([2]; 0.1 mg/kg orally once a day, (*) p < 0.05 vs Control) of the same substance?
**A.** 10.0 days

**Q.** And the Ratio of survival ([2]; 1.0 mg/kg orally once a day)?
**A.** 4/10

**Q.** And the Average life ([2]; 1.0 mg/kg orally once a day, (***) p < 0.001 vs Control)?
**A.** 15.2 days

**Q.** And the “Mice alive at end of test period” value ([2]; 1.0 mg/kg orally, 20 days from the infection)?
**A.** 4 mice

**Q.** And the Ratio of survival ([2]; 10.0 mg/kg orally once a day)?
**A.** 3/10

**Q.** And the Average life ([2]; 10.0 mg/kg orally once a day, (**) p < 0.01 vs Control)?
**A.** 13.7 days

**Q.** What about the “Average life vs Control group (result in words)” value ([2]; each of Testing groups, 0.1, 1.0 and 10.0 mg/kg orally) of the same substance?
**A.** a significant difference has been recognized

**Q.** And the s-GPT ([3]; 0.1 mg/kg/day orally)?
**A.** 382 ± 151 Karmen Unit

**Q.** What about the s-GOT ([3]; 0.1 mg/kg/day orally, (*) p < 0.05 vs Control) of the same substance?
**A.** 1034 ± 184

**Q.** And the s-GPT [3, 6]?
**A.** 238 ± 87 Karmen Unit

**Q.** And the s-GOT ([3]; 1.0 mg/kg/day orally, (***) p < 0.001 vs Control)?
**A.** 563 ± 133

**Q.** What about the s-GPT [3, 7] of the same substance?
**A.** 275 Karmen Unit

**Q.** What about the s-GOT ([3]; 10.0 mg/kg/day orally, (**) p < 0.01 vs Control) of the same substance?
**A.** 620 ± 201

**Q.** What about the “GOT and GPT values (result in words)” value ([3]; 0.1, 1.0 or 10.0 mg/kg/day orally) of the same substance?
**A.** noticeably decreasing GOT and GPT values

**Q.** And the s-GOT ([4]; 0.1 mg/kg/day orally)?
**A.** 1200 ± 180

**Q.** And the s-GPT ([4]; 0.1 mg/kg/day orally)?
**A.** 1005 ± 97 Karmen Unit

**Q.** And the s-GOT [4, 6]?
**A.** 1054 ± 140

**Q.** And the s-GPT [4, 6]?
**A.** 940 ± 83 Karmen Unit

**Q.** And the s-GPT ([4]; 10.0 mg/kg/day orally)?
**A.** 1086 ± 112 Karmen Unit

**Q.** What about the s-GOT [4, 7] of the same substance?
**A.** 1020 ± 164

**Q.** What about the “GOT and GPT values (result in words)” value ([4]; by the dose of 1.0 mg/kg orally) of the same substance?
**A.** noticeably decreasing GOT and GPT values
